PubChem BioAssay (NCI)
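Cultured in 96-well plates, cells were exposed to test compound for 48 hours across five concentrations. GI50 marks 50% less growth. The concentration for full growth arrest is given as TGI.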

Experiments:
Test in all cases: DTP human tumour cell line panel, 48 h
A498 renal = test system: A498 renal
HL-60(TB) leukemia = test system: HL-60(TB) leukemia
HOP-92 NSCLC = test system: HOP-92 NSCLC
M14 melanoma = test system: M14 melanoma
MCF7 breast = test system: MCF7 breast
MDA-MB-435 = test system: MDA-MB-435
SK-OV-3 ovarian = test system: SK-OV-3 ovarian
UACC-257 melanoma = test system: UACC-257 melanoma

Structure (SMILES)	GI50 (A498 renal)	TGI (A498 renal)	GI50 (HL-60(TB) leukemia)	TGI (HL-60(TB) leukemia)	GI50 (HOP-92 NSCLC)	TGI (HOP-92 NSCLC)	GI50 (M14 melanoma)	TGI (M14 melanoma)	GI50 (MCF7 breast)	TGI (MCF7 breast)	GI50 (MDA-MB-435)	TGI (MDA-MB-435)	GI50 (SK-OV-3 ovarian)	TGI (SK-OV-3 ovarian)	GI50 (UACC-257 melanoma)	TGI (UACC-257 melanoma)
CCCCC(CCCCCC(CCCC)NCc1ccc2c(c1)OCO2)NCc1ccc2c(c1)OCO2 (stereo not given)	1.49 µM	2.83 µM	0.458 µM	1.21 µM	0.569 µM	2.08 µM	0.182 µM	0.324 µM	0.273 µM	0.744 µM	0.199 µM	0.398 µM	1.77 µM	3.16 µM	0.199 µM	0.378 µM
O=C(O)[C@H](Cc1c[nH]c2ccccc12)N1C(=O)c2ccccc2C1=O	87.3 µM	> 100 µM	> 100 µM	> 100 µM	72.3 µM	> 100 µM		> 100 µM		> 100 µM		> 100 µM		> 100 µM		> 100 µM
COC(=O)c1ccc2c(c1)C(=O)c1c-2n(CCCCl)c(=O)c2cc([N+](=O)[O-])ccc12	> 100 µM	> 100 µM	> 100 µM	> 100 µM	23.6 µM	90.9 µM	82.5 µM	> 100 µM	52 µM	> 100 µM	> 100 µM	> 100 µM	> 100 µM	> 100 µM	> 100 µM	> 100 µM
C=C1CC2(CC(c3ccccc3Cl)OC(c3ccccc3Cl)C2)OC1=O (stereo not given)		21.3 µM		12.1 µM		4.65 µM		3.39 µM		5 µM		3.51 µM		16.9 µM		5.14 µM
O=C(CCl)NCCNc1nccc(Nc2ccc(S(=O)(=O)Nc3ccccn3)cc2)n1	3.67 µM	13.1 µM			3.46 µM	9.09 µM	1.72 µM	4.69 µM	1.78 µM	5.61 µM	1.96 µM	7.13 µM	4.67 µM	42.8 µM	2.54 µM	14.4 µM
CN(CCCCCl)P(=O)(OCCS(=O)(=O)CC(NC(=O)CCC(N)C(=O)O)C(=O)NC(C(=O)O)c1ccccc1)OCC1OC(n2ccc(N)nc2=O)C(O)C1O (stereo not given)	> 55.1 µM	> 75 µM	2.84 µM	> 30.3 µM	4.8 µM	74.1 µM	4.37 µM	> 75 µM	3.27 µM	> 75 µM	28.3 µM	> 75 µM	57.1 µM	> 75 µM	21.1 µM	> 69.8 µM
CC(=O)OC1CCC2(C)C(CCC3C2CC(=O)C2(C)C3CC(N3CC3)C2C(C)=O)C1 (stereo not given)		53.9 µM				43.1 µM		51.7 µM		47.1 µM		51.5 µM				32.5 µM
O=C(CC1(O)C(=O)N(Cc2ccccc2)c2ccc(Cl)cc21)c1ccc(C(=O)NCC2CCC3(CC2)OOC2(CCCCC2)OO3)cc1 (stereo not given)	1.77 µM	4.13 µM			0.214 µM	0.402 µM	2.52 µM	17.3 µM	1.81 µM	66.2 µM	0.394 µM	1.4 µM	3.48 µM	> 21.1 µM	8.61 µM	> 100 µM
O=c1c2ccc(S(=O)(=O)c3ccc4c(=O)n5c6ccccc6nc5c5cccc3c45)c3cccc(c32)c2nc3ccccc3n12								> 100 µM		> 100 µM		> 100 µM		31.6 µM		> 100 µM
O=C(Nc1ccc(Cc2ccccc2)cc1)Nc1nn(C(=O)Nc2ccc(Cc3ccccc3)cc2)c2ccccc12	82.4 µM	> 100 µM	> 100 µM	> 100 µM	18 µM	> 100 µM	> 100 µM	> 100 µM	> 100 µM	> 100 µM	> 100 µM	> 100 µM	> 100 µM	> 100 µM	> 100 µM	> 100 µM
CCCc1n(Cc2ccc3ccccc3c2)cc[n+]1Cc1ccc2ccccc2c1	0.938 µM	3.78 µM	0.321 µM	1.17 µM	0.863 µM	2.66 µM	1.1 µM	2.53 µM	1.11 µM	2.77 µM	0.564 µM	2.06 µM	1.74 µM	4.95 µM	0.466 µM	1.76 µM
CC1=CC(C)=NN=C(N)N1S(=O)(=O)c1cc(C)c(Cl)cc1SCc1ccccc1	> 100 µM	> 100 µM	6.75 µM	> 100 µM	3.82 µM	38.8 µM	21.4 µM	> 100 µM	13.3 µM	> 100 µM	21.3 µM	> 100 µM	77.7 µM	> 100 µM	37.6 µM	> 100 µM
CC1CCN(Cc2ccc(NC(=O)c3cc4ccc5cccnc5c4[nH]3)cc2)CC1	2.42 µM	12.9 µM	3.16 µM	13.1 µM	4.76 µM	20.5 µM	2.05 µM	4.08 µM	2.48 µM	14.7 µM	1.99 µM	4.24 µM	6.98 µM	42.5 µM		
COc1ccc(/C=C2\CN(C(=O)C(Cl)Cl)C/C(=C\c3ccc(OC)cc3)C2=O)cc1			0.791 µM	7.52 µM					0.296 µM	1.51 µM			4.2 µM	> 100 µM		
COc1cccc(/C=C/C(=O)c2ccc(SC)cc2)c1OC	11.3 µM	23.8 µM			21.6 µM	54.1 µM	17.2 µM	31.1 µM	11 µM	35.8 µM	17.8 µM	35.3 µM	23.5 µM	40.6 µM	15.7 µM	29.3 µM
CSc1c(C2=C(c3cn(C)c4ccccc34)C(=O)NC2=O)c2ccccc2n1C	0.376 µM	2.11 µM	0.703 µM	3.55 µM	0.599 µM	> 25 µM	0.649 µM	> 25 µM	0.805 µM	> 25 µM			0.833 µM	> 25 µM	1.41 µM	> 25 µM
O=C1/C=C/[C@@H](O)[C@@H]2C[C@@H](O)C[C@H]2/C=C/CCC[C@H](CCc2cccc3ccccc23)O1	0.0185 µM	0.815 µM	0.0923 µM	0.366 µM	12.3 µM	26.4 µM	0.0492 µM	8.58 µM	0.0753 µM	0.377 µM	0.0394 µM	3.43 µM	0.064 µM	12 µM	0.0303 µM	0.983 µM
O=C1C(=C(C(F)(F)Cl)C(F)(F)Cl)C2CCC1C2 (stereo not given)		> 10 µM		> 3.16 µM		6.42 µM		2.38 µM		> 6.52 µM		3.81 µM		> 10 µM		4.2 µM

Structure (SMILES)	GI50 (A498 renal)	TGI (A498 renal)	GI50 (HL-60(TB) leukemia)	TGI (HL-60(TB) leukemia)	GI50 (HOP-92 NSCLC)	TGI (HOP-92 NSCLC)	GI50 (M14 melanoma)	TGI (M14 melanoma)	GI50 (MCF7 breast)	TGI (MCF7 breast)	GI50 (MDA-MB-435)	TGI (MDA-MB-435)	GI50 (SK-OV-3 ovarian)	TGI (SK-OV-3 ovarian)	GI50 (UACC-257 melanoma)	TGI (UACC-257 melanoma)
CSC(=NC#N)S/C=C/C(=O)c1ccccc1	61 µM	> 100 µM			32.4 µM	> 100 µM	24.7 µM	65.8 µM	52.3 µM	> 100 µM	34.7 µM	> 100 µM	> 100 µM	> 100 µM	45.4 µM	> 100 µM
NC(=NCc1ccccc1)C(N=Nc1ccccc1)C(=O)NCc1ccccc1 (stereo not given)	6.17 µM	23 µM	4.64 µM	27.4 µM	1.78 µM	7.38 µM	5.71 µM	22.3 µM	12 µM	32 µM	5.51 µM	25.5 µM	20.1 µM	47.7 µM	26.8 µM	69.5 µM
Cc1c(O)c(N=Nc2nc3ccccc3s2)c2ccccc2c1O			> 50 µM	> 50 µM	33.9 µM	> 50 µM	33.5 µM	> 50 µM	> 50 µM	> 50 µM	19.8 µM	> 50 µM	30.1 µM	> 50 µM	14.7 µM	36.1 µM
Cc1ccc2oc(=O)cc(/C(=C3/C=CC=N3)c3ccc[nH]3)c2c1	0.269 µM	0.92 µM	0.271 µM	0.717 µM	0.155 µM	2.57 µM	0.209 µM	0.548 µM	0.348 µM	4.23 µM	0.211 µM	0.544 µM	0.264 µM	0.815 µM	0.711 µM	4.06 µM
CCCCOC(=O)c1ccc(N)cc1	33.6 µM	> 100 µM	52.7 µM	> 100 µM	95.1 µM	> 100 µM	41.1 µM	> 100 µM	74.6 µM	> 100 µM	34.9 µM	> 100 µM	> 100 µM	> 100 µM	52.2 µM	> 100 µM
COc1cc(Oc2c(C)c(Cl)c(OC)c(Cl)c2OC)c2c(c1Cl)COC2=O		> 100 µM		31.6 µM		> 100 µM		> 100 µM		86.2 µM		> 100 µM		> 100 µM		> 100 µM
C=C(CO)CC(O)c1cc(OC)ccc1OC (stereo not given)				> 100 µM		> 100 µM		> 100 µM						> 100 µM		> 100 µM
COc1cc(C2CC(c3cccc(Nc4ccnc5cc(Cl)ccc45)c3)=NN2c2ccc(Cl)cc2)cc(OC)c1OC (stereo not given)	4.65 µM	91.5 µM	4.18 µM	> 100 µM	1.85 µM	74.8 µM	0.63 µM	13.8 µM	2.31 µM	> 100 µM	0.804 µM	6.58 µM	17.3 µM	> 100 µM	3.45 µM	> 100 µM
CC1(C)S[C@@H]2[C@H](N3C(=O)c4ccccc4C3=O)CN2[C@H]1NC(=O)N[C@@H]1N2C[C@@H](N3C(=O)c4ccccc4C3=O)[C@H]2SC1(C)C		> 100 µM		> 100 µM		> 100 µM		> 100 µM		> 100 µM		> 100 µM		> 100 µM		
NCCc1ccc(S(=O)(=O)F)cc1					32.9 µM	96.2 µM	> 100 µM	> 100 µM	63.5 µM	> 100 µM	65.1 µM	> 100 µM	> 100 µM	> 100 µM	> 100 µM	> 100 µM
Cc1nc2c(c(N3CCCc4ccccc43)n1)CCC2	< 0.01 µM		< 0.01 µM		2.42 µM	> 100 µM			0.0228 µM	> 100 µM			< 0.01 µM	> 100 µM	12.9 µM	> 100 µM
CCCCCCCCCCCCCCCC1=NCCN1	2.14 µM	6.14 µM	1.73 µM	3.89 µM	2.15 µM	4.8 µM					1.7 µM	3.26 µM	2.23 µM	4.85 µM	3.25 µM	9.55 µM
CCN1CCC(Nc2ccnc3cc(Cl)ccc23)CC1	74.6 µM	> 100 µM			45.3 µM	> 100 µM	14.4 µM	29.3 µM	28.2 µM	> 100 µM	17.8 µM	55.5 µM	> 100 µM	> 100 µM	17 µM	32.3 µM
COC(=O)C1=C(O)[C@H](C(=O)OC)C2(O)C(C(=O)OC)[C@H](c3ccc(OC(=O)C(C)c4ccccc4)cc3)C[C@@H]1[C@@H]2C(=O)OC (stereo not given in full)			43.3 µM	> 50 µM	> 50 µM	> 50 µM	34.9 µM	> 50 µM	33.7 µM	> 50 µM	10.4 µM	25.1 µM	33.3 µM	> 50 µM	41.1 µM	> 50 µM
N#Cc1c(NCc2ccccc2)nc(NCc2ccccc2)c(C#N)c1-c1ccc(O)cc1	24.9 µM	63.5 µM			0.316 µM	7.96 µM	29.9 µM	> 100 µM	39.7 µM	> 100 µM	25.2 µM	69.8 µM	34.5 µM	> 100 µM	43.2 µM	> 100 µM
O=C1C(Cl)=C(Nc2ccc(Nc3ccccc3)c(NC3=C(Cl)C(=O)c4ccccc4C3=O)c2)C(=O)c2ccccc21	0.875 µM	14.4 µM	2.07 µM	4.65 µM	0.0439 µM	3.27 µM	4.55 µM	> 100 µM	5.31 µM	44 µM	25 µM	> 100 µM			6.12 µM	33.7 µM
CC(=O)Nc1cc2cc(N)ccc2oc1=O		> 100 µM		> 100 µM		> 100 µM		> 100 µM		> 100 µM		> 100 µM				> 100 µM
